The record followed here is US8592446B2, “[1,10]-phenanthroline derivatives for the treatment of neurodegenerative or haematological diseases” (Noscira, S.A., priority 2007, dated 2013).

Read-outs that look alike come from different tables or passages of the source.

Common to all, as to format: cell-based
Data set [1] deals with SH-SY5Y human neuroblastoma cells. Briefly: Toxicity: LDH activity release in SH-SY5Y cells. The conditions noted are these: 24 h; for Maximum concentration tested for toxicity: increasing concentrations from 1 μM up to 1 mM. The protocol: The potential effects on cell viability of the assayed compounds are assayed in SH-SY5Y human neuroblastoma cells, by quantification of Lactate dehydrogenase (LDH) activity release. SH-SY5Y human neuroblastoma cells are seeded into 96-well culture plates at 10^4 cells/well. The medium is then removed and the cells incubated with different concentrations of the compounds during 24 h. The compounds are tested at increasing concentrations starting from 1 μM, in fresh culture medium, in order to find the minimum concentration at which the compounds are toxic, up to a maximum of 1 mM. After 24 h, the medium is removed and cells attached to the bottom of the well are lysed by adding 50 μl of Krebs-Hepes; Triton X-100 1% during 5 minutes at room temperature. For LDH release quantification, the Roche cytotoxicity detection kit (Cat.
No. 11 644 793 001) is used. The LDH activity is measured by its absorbance at 492 nm with reference wavelength 620 nm.
In Table 1, for each compound the maximum concentration at which toxicity was tested is indicated in the second column. In the third column, it is indicated whether at this maximum concentration the compound was toxic or not. All the compounds, with the exception of Compound 3, resulted non-toxic at the concentration for which activity was found, in most of the cases even at a 1000-fold concentration. Thus, the compounds may be considered non-toxic.

For data set [2] the test system is unchanged. As to the kind of experiment: Protection against hydrogen peroxide-induced cell death (LDH). The conditions noted are these: compound 1 h before H2O2 100 μM, 24 h; for minimal effective concentration: Homo sapiens, SH-SY5Y, read-out: Protect. H2O2 (minimum concentration for which protection was determined). How it is done: The aim of this assay is to determine the neuroprotective effect of the compounds of formula (I), when human neuroblastoma cells are exposed to oxidative stress induced by hydrogen peroxide, which is highly deleterious to the cell and its accumulation causes oxidation of cellular targets such as DNA, proteins, and lipids leading to mutagenesis and cell death.
SH-SY5Y human neuroblastoma cells are seeded into 96-well culture plate at a density of 10^4 cells/well. Cells are exposed to different concentrations of the compound one hour before the treatment with H2O2 100 μM during 24 h. 5 mM N-acetylcysteine (NAC), a known anti-oxidant agent was used as a positive control, and preincubated 1 hour before the treatment with H2O2. After 24 h, the medium is removed and cells attached to the bottom of the well are lysed by adding 50 μl of Triton X-100 1% in Krebs-Hepes during 5 minutes at room temperature. For LDH release quantification, Roche cytotoxicity detection kit (Cat. No. 11 644 793 001) was used.

For data set [3] the test system is unchanged. As to the kind of experiment: Protection against 6-OHDA-induced cell death, condition A (10% foetal bovine serum). The conditions noted are these: preincubated 2 hours, 6-OHDA 75 μM 16 hours, read-out: Protect. 6-OHDA (+ FBS) (minimum concentration with neuroprotective effect). From the text: (§1) The aim of this experiment is to determine the protective effect of the compounds of formula (1) against the toxicity caused by 6-OHDA. This toxin induces a cell death similar to which occurs in Parkinson's disease, destroying dopaminergic neurons (“MPTP and 6-hydroxydopamine-induced neurodegeneration as models for Parkinson's disease: neuroprotective strategies”; Grunblatt E, et al.; J Neurol. 2000 Apr; 247 Suppl 2:II95-102).
(§2) Two or three days before the experiment, the SH-SY5Y human neuroblastoma cells are seeded into 96-well culture plate at a density of 10^4 cells/well. Cells are exposed to the treatment with 6-OHDA and, finally, cell death is measured by LDH quantification. As positive control we used NAC.
• A) NAC and the compound of formula (I) are preincubated during 2 hours before the treatment with 6-OHDA 75 μM during 16 hours. The assay is performed in medium containing 10% Foetal bovine serum.
(§3) For each compound the minimum concentration of compound of formula (I) at which a neuroprotective effect is shown.

Data set [4] shares this test system. Briefly: Protection against 6-OHDA-induced cell death, condition B (no fetal bovine serum). The following applies: preincubated 1 hour, 6-OHDA 50 μM 24 hours, read-out: Protect. 6-OHDA (−FBS) (minimum concentration with neuroprotective effect).
Source text: as §1, §2
• B) NAC and the compound of formula (I) are preincubated during 1 hour before the treatment with 6-OHDA 50 μM during 24 hours. The assay is performed in a medium without any fetal bovine serum.
as §3

In data set [5] the test system is Aβ (1-40) secretion by CHO7W cells (stably transfected with human APP751 wt cDNA). As to the kind of experiment: Inhibition of Aβ(1-40) secretion (ELISA, cellular supernatants). The conditions noted are these: Aβ 1-40 ELISA; for minimal effective concentration: read-out: Inhibition secretion beta-amyloid (minimum concentration). From the text: To quantitate Aβ secretion ELISA-based method was used. The assay consists in detection of antigen by selective monoclonal anti-Aβ-antibodies at two different epitopes forming a “Sandwich-complex”, that is detected by colorimetric measure due to the binding of a secondary antibody conjugated with peroxidase that catalyses the conversion of a substrate or chromogen, TMB, into a coloured product, directly proportional to the peptide quantity in the sample. The Aβ production has been analyzed by ELISA, using a colorimetric commercial kit: Immunoassay Kit Human β Amyloid 1-40 (Biosource).
Aβ (1-40) were quantified from cellular supernatants. An APP-transfected cell line has been employed for the experiments: CHO7W (stably transfected with human APP751 wt cDNA). The cells were grown in a culture medium consisting of DMEM supplemented with 2% Fetal bovine serum, 1% penicillin-streptomycin, 1% L-glutamine and 200 μg/ml G418. Cells are seeded in 96-well culture microplate, at 5000 cells/well and treatment with different compounds at different concentrations is performed 24 hour after seeding.
OM99-2 (H-5108, Bachem), a BACE inhibitor, was used as Aβ secretion reduction positive control in all the Aβ secretion studies. The cells were treated with this compound at 3 μM concentration, culture media were collected at 24 hours.
(In general: ELISA stands for enzyme-linked immunosorbent assay.)

In data set [6] the test system is SH-SY5Y cells. As to the kind of experiment: Neuroprotection against Aβ25-35 toxicity (LDH assay). The following applies: Homo sapiens, pre-treated 1 hour, 200 μM Aβ25-35 24 hours, read-out: Protect. beta-Amyloid25-35 (minimum concentration showing neuroprotection). The protocol:
In order to evaluate potential neuroprotection of compounds, SH-SY5Y cells, cultured in 96-well plates, were pre-treated for 1 hour with the compound at different concentrations and then exposed 24 hours to 200 μM Aβ25-35 (Neosystem) to induce extensive oxidative stress and cell death. The ability of the compound of protecting against this toxicity is then evaluated by measuring intracellular LDH, using the colorimetric LDH assay.
It is widely accepted that the neurotoxic activity of Aβ resides within amino acids 25-35 (see e.g. Yankner B A et al., (1990) Neurotrophic and neurotoxic effects of amyloid β protein: reversal by tachykinin neuropeptides; Science 250:279-282).

Turning to `CCCSc1cc(/C=N/O)nc2c1ccc1cccnc12` [Compound 5, 4-Propylsulfanyl-[1,10]phenanthroline-2-carbaldehyde oxime], the “Maximum concentration tested for toxicity” value in data set [1] worked out at 1000 µM. Further, the “Toxic at maximum concentration tested (Yes/No)” value (“Toxic … (Yes/No)” for short) in data set [1] (at 1 mM) is “Yes”. Moreover, the “Protect. H2O2 (minimum concentration for which protection was determined)” value in data set [2] is reported as 5 nM. Besides, the minimal effective concentration in data set [3] was determined as 0.05 µM; in data set [4], 0.5 µM; in data set [5], 0.001 µM.

As for `ON=Cc1cc(Cl)c2ccc3cccnc3c2n1` [Compound 2, 4-Chloro-[1,10]phenanthroline-2-carbaldehyde oxime], the “Maximum concentration tested for toxicity” value in data set [1] turned out to be 1000 µM. In addition, the “Toxic … (Yes/No)” value in data set [1] (at 1 mM) is “Yes”. Moreover, the minimal effective concentration in data set [2] stood at 0.05 µM; in data set [3], 0.5 µM; in data set [4], 0.5 µM; in data set [6] it was 10 µM. Besides, the “Inhibition secretion beta-amyloid (minimum concentration)” value in data set [5] is on record as 1 mM.

On to `Cc1nnc(Sc2cc(C=NO)nc3c2ccc2cccnc23)s1` [Compound 18, 4-(5-Methyl-[1,3,4]thiadiazol-2-ylsulfanyl)-[1,10]phenanthroline-2-carbaldehyde oxime], for which the “Maximum concentration tested for toxicity” value in data set [1] was 10 µM. Further, the “Toxic … (Yes/No)” value in data set [1] (at 10 μM) was “Yes”. Besides, the minimal effective concentration stood at 0.05 µM in data set [2]; 0.05 µM in data set [3]; 10 µM in data set [4]; 10 µM in data set [6]; 0.1 µM in data set [5] (Homo sapiens, CHO-7W).

As for `ON=Cc1cc(Sc2nccs2)c2ccc3cccnc3c2n1` [Compound 15, 4-(Thiazol-2-ylsulfanyl)-[1,10]phenanthroline-2-carbaldehyde oxime], the “Maximum concentration tested for toxicity” value in data set [1] turned out to be 100 µM. Further, the “Toxic … (Yes/No)” value in data set [1] (at 100 μM) is on record as “Yes”. Moreover, the minimal effective concentration in data set [2] came to 0.5 µM; in data set [5] (Homo sapiens, CHO-7W), 10 µM.

On to `NCCOc1cc(/C=N/O)nc2c1ccc1cccnc12` [Compound 9, 4-(2-Amino-ethoxy)-[1,10]phenanthroline-2-carbaldehyde oxime], for which the “Maximum concentration tested for toxicity” value in data set [1] was 10 µM. Besides, the “Toxic … (Yes/No)” value in data set [1] (at 10 μM) is “No”. Also, the minimal effective concentration in data set [2], in data set [3], in data set [4] and in data set [6] was 5 µM each time. The “Inhibition secretion beta-amyloid (minimum concentration)” value in data set [5] worked out at 10 mM.

Turning to `CN(C)C(=O)CSc1cc(C=NO)nc2c1ccc1cccnc12` [Compound 12, 2-[2-(Hydroxyimino-methyl)-[1,10]phenanthrolin-4-ylsulfanyl]-N,N-dimethyl-acetamide], the “Maximum concentration tested for toxicity” value in data set [1] came to 1000 µM. For the same molecule, the “Toxic … (Yes/No)” value in data set [1] (at 1000 μM) is “No”. For the same molecule, the minimal effective concentration came to 0.1 µM in data set [2]; 0.1 µM in data set [3]; 0.5 µM in data set [4]; 10 µM in data set [6]; 1 µM in data set [5] (Homo sapiens, CHO-7W).

With `CCOc1cc(/C=N/O)nc2c1ccc1cccnc12` [Compound 6, 4-Ethoxy-[1,10]phenanthroline-2-carbaldehyde oxime], the “Maximum concentration tested for toxicity” value in data set [1] amounted to 1000 µM. The “Toxic … (Yes/No)” value in data set [1] (at 1 mM) is “Yes”. For the same molecule, in data set [2], the “Protect. H2O2 (minimum concentration for which protection was determined)” value is listed as 5 nM. In addition, the minimal effective concentration was determined as 0.05 µM in data set [3], 0.5 µM in data set [4], 10 µM in data set [6] and 0.01 µM in data set [5].

As for `ON=Cc1cc(Sc2nncs2)c2ccc3cccnc3c2n1` [Compound 19, 4-([1,3,4]Thiadiazol-2-ylsulfanyl)-[1,10]phenanthroline-2-carbaldehyde oxime], the “Maximum concentration tested for toxicity” value in data set [1] was determined as 10 µM. Also, the “Toxic … (Yes/No)” value in data set [1] (at 10 μM) is “Yes”. Besides, the minimal effective concentration is 0.5 µM in data set [2] and 1 µM in data set [5] (Homo sapiens, CHO-7W).

With `O=Cc1cc(Cl)c2ccc3cccnc3c2n1` [Compound 3, 4-Chloro-[1,10]phenanthroline-2-carbaldehyde], in data set [1], the “Toxicity at the concentration for which activity was found” value is recorded as “exception” and the “Maximum concentration tested for toxicity” value came out at 10 µM. In addition, the “Toxic … (Yes/No)” value in data set [1] (at 10 μM) was “Yes”. Further, the minimal effective concentration in data set [2] came to 10 µM. Moreover, the minimal effective concentration in data set [4] worked out at 10 µM.

Take `Cc1cnc(Sc2cc(C=NO)nc3c2ccc2cccnc23)s1` [Compound 17, 4-(5-Methyl-thiazol-2-ylsulfanyl)-[1,10]phenanthroline-2-carbaldehyde oxime]: the “Maximum concentration tested for toxicity” value in data set [1] was 1000 µM. In data set [1] (at 1000 μM), the “Toxic … (Yes/No)” value is reported as “Yes”. The minimal effective concentration in data set [2] worked out at 5 µM; in data set [5] (Homo sapiens, CHO-7W), 10 µM.

Consider `CSc1cc(C=O)nc2c1ccc1cccnc12` [Compound 20, 4-Methylsulfanyl-[1,10]phenanthroline-2-carbaldehyde], for which the “Maximum concentration tested for toxicity” value in data set [1] was 10 µM. Also, the “Toxic … (Yes/No)” value in data set [1] (at 10 μM) is “Yes”. For the same molecule, the minimal effective concentration in data set [2] was found to be 0.5 µM; in data set [5] (Homo sapiens, CHO-7W), 10 µM.
